For one experiment, the target named is T1, menin (Homo sapiens, UniProt O00255, T541A).
T1 construct: Menin (a.a. 1-610-6×his tag)
T1 sequence (O00255 with tags, fused parts or gaps T541A): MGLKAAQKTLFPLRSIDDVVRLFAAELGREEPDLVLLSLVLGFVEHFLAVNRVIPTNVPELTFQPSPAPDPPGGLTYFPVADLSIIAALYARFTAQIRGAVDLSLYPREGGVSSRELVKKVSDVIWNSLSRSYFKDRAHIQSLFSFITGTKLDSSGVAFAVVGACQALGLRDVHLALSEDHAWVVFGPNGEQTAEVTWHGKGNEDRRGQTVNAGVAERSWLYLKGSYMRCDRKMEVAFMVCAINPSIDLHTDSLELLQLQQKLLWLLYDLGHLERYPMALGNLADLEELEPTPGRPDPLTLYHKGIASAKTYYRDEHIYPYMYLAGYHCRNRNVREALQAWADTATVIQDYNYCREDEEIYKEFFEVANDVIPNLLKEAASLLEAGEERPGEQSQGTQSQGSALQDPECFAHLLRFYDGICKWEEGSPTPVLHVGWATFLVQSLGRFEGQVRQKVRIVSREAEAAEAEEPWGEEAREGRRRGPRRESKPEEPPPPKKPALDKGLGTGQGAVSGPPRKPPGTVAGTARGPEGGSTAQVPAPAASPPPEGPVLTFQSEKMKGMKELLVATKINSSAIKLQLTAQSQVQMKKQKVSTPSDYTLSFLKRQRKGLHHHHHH
The experiment is described as follows: Menin/MLL homogenous time-resolved fluorescence (HTRF) assay. It is filed as binding. In outline: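 Displacement of 75 nM FITC-MBM1 from terbium-cryptate-labeled His-tagged menin 1-610 ([…]) was read as the 520/490 nm HTRF ratio. Compound (11-point, 3-fold series) got 5 min with menin before peptide, then 15 min at ambient; 0.5% DMSO, Tris pH 7.5.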

The next experiment deals with MOLM14. The experiment is described as follows: Proliferation assay B (spheroid assay) MOLM14. It counts as cell-based, human. The conditions noted are these: MOLM14 cells, confluence at day 8, absolute IC50, read-out: (3b) Spheroid assay MOLM14 (IC50(μM)) Assay B. On the procedure:
3b) Proliferation Assay B
The anti-proliferative effect of menin/MLL protein/protein interaction inhibitor test compounds was assessed in human leukemia cell lines. The cell lines MV-4-11 and MOLM14 harbor MILL translocations and express the MILL fusion proteins MLL-AF4 and MLL-AF9, respectively, as well as the wildtype protein from the second allele. […] K562 was used as a control cell line containing two MLL wildtype alleles in order to exclude compounds that display general cytotoxic effects.
MV-4-11 and MOLM14 were cultured in RPMI-1640 (Sigma Aldrich) supplemented with 10% fetal bovine serum (HyClone), 2 mM L-glutamine (Sigma Aldrich) and 50 μg/ml gentamycin (Gibco). K562 were propagated in RPMI-1640 (Sigma Aldrich) supplemented with 20% fetal bovine serum (HyClone), 2 mM L-glutamine (Sigma Aldrich) and 50 μg/ml gentamycin (Gibco).
In order to assess the anti-proliferative effects, 1,500 MV-4-11, 300 MOLM14 cells or 750 K562 cells were seeded in 200 μl media per well in 96-well round bottom, ultra-low attachment plates (Costar, catalogue number 7007). Cell seeding numbers were chosen based on growth curves to ensure linear growth throughout the experiment. Test compounds were added at different concentrations and the DMSO content was normalized to 0.3%. Cells were incubated for 8 d at 37° C. and 5% CO2. Spheroid like growth was measured in real-time by live-cell imaging (IncuCyteZOOM, Essenbio, 4× objective) acquiring images at day 8. Confluence (%) as a measure of spheroid size was determined using an integrated analysis tool.
In order to determine the effect of the test compounds over time, the confluence in each well as a measure of spheroid size, was calculated. Confluence […] at the beginning of the experiment (t=0) was used as baseline for the calculation.
Absolute IC50 values were calculated as percent change in confluence as follows:
LC=Low Control: cells treated with 1 μM of the cytotoxic agent staurosporin
HC=High Control: Mean confluence (%) (DMSO treated cells) % Effect=100−(100*(Sample−LC)/(HC−LC))
To determine the IC50 a curve is fitted to the plot of % Effect vs Log 10 compound concentration using a sigmoidal fit with a variable slope and fixing the maximum to 100% and the minimum to 0%.

Setting [1] is: location 2, read-out: (2) location 2 Menin HTRF assay (IC50 (nM)).
[2] abbreviates: location 1, read-out: (2) location 1 Menin HTRF assay (IC50 (nM)).

Read-outs that look alike come from different tables or passages of the source.

A word on the IC50: it is the point on the concentration scale where inhibition reaches its midpoint. `FC(F)(F)Cc1cc2c(N3CC4(CC[C@H](Nc5ccc(-c6cn[nH]c6)cc5)C4)C3)ncnc2s1` (single isomer, unassigned) [Compound 304]: the IC50 at menin (setting [1]) is 17.3 nM; with MOLM14 (Homo sapiens, MOLM-14, 192 h), over 3.75 µM.

`CC(=O)Nc1ccc(NC2CC3(CCN(c4ncnc5sc(CC(F)(F)F)cc45)C3)C2)cc1` (single isomer, unassigned) [Compound 331]: the IC50 at menin (setting [1]) was 3.4 nM; with MOLM14 (Homo sapiens, MOLM-14, 192 h), 3.38 µM.

For the compound `O=C(c1ccc(NC2CC3(CCN(c4ncnc5sc(CC(F)(F)F)cc45)C3)C2)c(F)c1)N1CCOCC1` (single isomer, unassigned) [Compound 352], the values for the IC50 on menin (setting [1]) and in the experiment on MOLM14 were 139 nM and over 3.75 µM, respectively.

As for `O=C(c1ccc(NC2CC3(CCN(c4ncnc5sc(CC(F)(F)F)cc45)C3)C2)c(F)c1)N1CCOCC1` (single isomer, unassigned) [Compound 353], the IC50 on menin (setting [1]) was 17.3 nM; with MOLM14 (Homo sapiens, MOLM-14, 192 h) it was over 3.75 µM.

Take `CNC(=O)Cn1cc(NC2CC3(CCN(c4ncnc5sc(CC(F)(F)F)cc45)C3)C2)cn1` (single isomer, unassigned) [Compound 355]: the IC50 at menin (setting [1]) is 1460 nM; in the experiment on MOLM14 (Homo sapiens, MOLM-14, 192 h), over 3.75 µM.

As for `CNC(=O)Cn1cc(NC2CC3(CCN(c4ncnc5sc(CC(F)(F)F)cc45)C3)C2)cn1` (single isomer, unassigned) [Compound 356], the IC50 at menin (setting [1]) is 2680 nM; with MOLM14, over 3.75 µM.

Consider `N#CCn1c(=O)[nH]c2cc(NC3CC4(CCN(c5ncnc6sc(CC(F)(F)F)cc56)C4)C3)ccc21` (single isomer, unassigned) [Compound 357], for which the half-inhibitory concentration (IC50) at menin (setting [1]) is 3.1 nM; in the experiment on MOLM14 (Homo sapiens, MOLM-14, 192 h) it was over 3.75 µM.

On to `N#CCn1c(=O)[nH]c2cc(NC3CC4(CCN(c5ncnc6sc(CC(F)(F)F)cc56)C4)C3)ccc21` (single isomer, unassigned) [Compound 358], for which the IC50 at menin (setting [1]) is 5.3 nM; in the experiment with MOLM14, 3.5 µM.

On to `NC(=O)Cn1c(=O)[nH]c2cc(NC3CC4(CCN(c5ncnc6sc(CC(F)(F)F)cc56)C4)C3)ccc21` (single isomer, unassigned) [Compound 359], for which the IC50 is 16.2 nM at menin (setting [1]) and over 3.75 µM with MOLM14 (Homo sapiens, MOLM-14, 192 h).

Turning to `NC(=O)Cn1c(=O)[nH]c2cc(NC3CC4(CCN(c5ncnc6sc(CC(F)(F)F)cc56)C4)C3)ccc21` (single isomer, unassigned) [Compound 360], the IC50 was 448 nM on menin (setting [1]) and over 3.75 µM in the experiment with MOLM14.

For the compound `CN(C(=O)c1ccc(NC2CC3(CCN(c4ncnc5sc(CC(F)(F)F)cc45)C3)C2)cc1)S(C)(=O)=O` (single isomer, unassigned) [Compound 363], the IC50 at menin (setting [2]) was found to be 44.1 nM; at menin (setting [1]), 46 nM; with MOLM14 (Homo sapiens, MOLM-14, 192 h) it was 2.1 µM.

Take `CN(C(=O)c1ccc(NC2CC3(CCN(c4ncnc5sc(CC(F)(F)F)cc45)C3)C2)cc1)S(C)(=O)=O` (single isomer, unassigned) [Compound 364]: the IC50 on menin (setting [2]) came to 0.8 nM; on menin (setting [1]) it was 1.3 nM; in the experiment on MOLM14 it was 1.1 µM.

As for `CS(=O)(=O)NCc1ccc(NC2CC3(CCN(c4ncnc5sc(CC(F)(F)F)cc45)C3)C2)cc1` (single isomer, unassigned) [Compound 367], the IC50 is 63.6 nM at menin (setting [1]) and over 3.75 µM in the experiment on MOLM14 (Homo sapiens, MOLM-14, 192 h).

Take `CS(=O)(=O)NCc1ccc(NC2CC3(CCN(c4ncnc5sc(CC(F)(F)F)cc45)C3)C2)cc1` (single isomer, unassigned) [Compound 368]: the half-maximal inhibitory concentration (IC50) at menin (setting [1]) worked out at 2.9 nM; with MOLM14, 2.61 µM.

For `N#CCc1ccc(NC2CC3(CCN(c4nc(N)nc5sc(CC(F)(F)F)cc45)C3)C2)cc1` (single isomer, unassigned) [Compound 379], the IC50 at menin (setting [1]) is 1.4 nM; in the experiment on MOLM14 (Homo sapiens, MOLM-14, 192 h), over 3.75 µM.

As to `Nc1nc(N2CCC3(CC(Nc4ccc5[nH]c(=O)[nH]c5c4)C3)C2)c2cc(CC(F)(F)F)sc2n1` (single isomer, unassigned) [Compound 382], the IC50 at menin (setting [1]) is 27.9 nM; with MOLM14 (Homo sapiens, MOLM-14, 192 h), over 3.75 µM.

Consider `CNc1nc(N2CCC3(CC(Nc4ccc5[nH]c(=O)[nH]c5c4)C3)C2)c2cc(CC(F)(F)F)sc2n1` (single isomer, unassigned) [Compound 394], for which the IC50 on menin (setting [1]) was 13.8 nM; in the experiment with MOLM14 (Homo sapiens, MOLM-14, 192 h), over 3.75 µM.

For the compound `CNc1nc(N2CCC3(CC(Nc4ccc5oc(=O)[nH]c5c4)C3)C2)c2cc(CC(F)(F)F)sc2n1` (single isomer, unassigned) [Compound 397], the IC50 is 4.4 nM on menin (setting [1]) and over 3.75 µM in the experiment on MOLM14 (Homo sapiens, MOLM-14, 192 h).

Consider `CNc1nc(N2CCC3(CC(Nc4ccc5oc(=O)[nH]c5c4)C3)C2)c2cc(CC(F)(F)F)sc2n1` (single isomer, unassigned) [Compound 398], for which the IC50 on menin (setting [1]) is 16.2 nM; in the experiment with MOLM14, over 3.75 µM.

For the compound `CC1CN(C(=O)c2ccc(NC3CC4(CCN(c5ncnc6sc(CC(F)(F)F)cc56)C4)C3)cc2)CC(C)O1` (single isomer, unassigned) [Compound 405], the IC50 at menin (setting [1]) was 1100 nM; in the experiment with MOLM14 (Homo sapiens, MOLM-14, 192 h), over 3.75 µM.

As for `CC1CN(C(=O)c2ccc(NC3CC4(CCN(c5ncnc6sc(CC(F)(F)F)cc56)C4)C3)cc2)CC(C)O1` (single isomer, unassigned) [Compound 406], the IC50 at menin (setting [1]) was 36 nM; in the experiment on MOLM14, over 3.75 µM.

`COC[C@H]1COCCN1C(=O)c1ccc(NC2CC3(CCN(c4ncnc5sc(CC(F)(F)F)cc45)C3)C2)cc1` (single isomer, unassigned) [Compound 407]: the IC50 on menin (setting [1]) is 1020 nM; with MOLM14 (Homo sapiens, MOLM-14, 192 h) it was over 3.75 µM.

Consider `COC[C@H]1COCCN1C(=O)c1ccc(NC2CC3(CCN(c4ncnc5sc(CC(F)(F)F)cc45)C3)C2)cc1` (single isomer, unassigned) [Compound 408], for which the IC50 is 16.4 nM on menin (setting [1]) and over 3.75 µM in the experiment with MOLM14.

Take `O=C(c1ccc(NC2CC3(CCN(c4ncnc5sc(CC(F)(F)F)cc45)C3)C2)cc1)N1CCS(=O)(=O)CC1` (single isomer, unassigned) [Compound 411]: the IC50 on menin (setting [1]) is 101 nM; in the experiment with MOLM14 (Homo sapiens, MOLM-14, 192 h) it was over 3.75 µM.

Turning to `O=C(c1ccc(NC2CC3(CCN(c4ncnc5sc(CC(F)(F)F)cc45)C3)C2)cc1)N1CCS(=O)(=O)CC1` (single isomer, unassigned) [Compound 412], the IC50 on menin (setting [1]) is 7510 nM; in the experiment on MOLM14, over 3.75 µM.

In the case of `CNC(=O)c1cnc(NC2CC3(CCN(c4ncnc5sc(CC(F)(F)F)cc45)C3)C2)cn1` (single isomer, unassigned) [Compound 418], the IC50 was 749 nM at menin (setting [1]) and over 3.75 µM in the experiment with MOLM14 (Homo sapiens, MOLM-14, 192 h).

`CNC(=O)c1cnc(NC2CC3(CCN(c4ncnc5sc(CC(F)(F)F)cc45)C3)C2)cn1` (single isomer, unassigned) [Compound 419]: the values for the 50% inhibitory concentration (IC50) at menin (setting [1]) and in the experiment with MOLM14 were 10.8 nM and 3.04 µM, respectively.

`O=C(c1ccc(NC2CC3(CCN(c4ncnc5sc(CC(F)(F)F)cc45)C3)C2)nn1)N1CCOCC1` (single isomer, unassigned) [Compound 420]: the IC50 on menin (setting [1]) was 3380 nM; in the experiment with MOLM14 (Homo sapiens, MOLM-14, 192 h), over 3.75 µM.

Take `O=C(c1ccc(NC2CC3(CCN(c4ncnc5sc(CC(F)(F)F)cc45)C3)C2)nn1)N1CCOCC1` (single isomer, unassigned) [Compound 421]: the IC50 was 208 nM on menin (setting [1]) and over 3.75 µM in the experiment with MOLM14.

Values taken from patent US11396517B1, “Exo-aza spiro inhibitors of menin-MLL interaction” (Janssen Pharmaceutica NV, priority 2017, dated 2022).
